Measurements reported in patent US7888464B2, “Hepatitis C virus inhibitors” (Bristol-Myers Squibb Company, priority 2006, dated 2011).

System: HCV replicon (strain 1b) in HUH-7 cells
Assay: HCV replicon FRET assay
Type: cell-based
Details: Hepatitis C virus, Huh-7, read-out: EC50 in the replicon FRET assay
Source text: An HCV replicon whole cell system was established as described by Lohmann V, Korner F, Koch J, Herian U, Theilmann L, Bartenschlager R., Science 285(5424): 110-3 (1999). This system enabled us to evaluate the effects of our HCV Protease compounds on HCV RNA replication. Briefly, using the HCV strain 1b sequence described in the Lohmann paper (Assession number: AJ238799), an HCV cDNA was synthesized by Operon Technologies, Inc. (Alameda, Calif.), and the full-length replicon was then assembled in plasmid pGem9zf(+) (Promega, Madison, Wis.) using standard molecular biology techniques. The replicon consists of (i) the HCV 5′ UTR fused to the first 12 amino acids of the capsid protein, (ii) the neomycin phosphotransferase gene (neo), (iii) the IRES from encephalomyocarditis virus (EMCV), and (iv) HCV NS3 to NS5B genes and the HCV 3′ UTR. Plasmid DNAs were linearized with ScaI and RNA transcripts were synthesized in vitro using the T7 MegaScript transcription kit (Ambion, Austin, Tex.) according to manufacturer's directions. In vitro transcripts of the cDNA were transfected into the human hepatoma cell line, HUH-7. […] Resulting cell lines were characterized for positive and negative strand RNA production and protein production over time.
The HCV replicon FRET assay was developed to monitor the inhibitory effects of compounds described in the disclosure on HCV viral replication. HUH-7 cells, constitutively expressing the HCV replicon, were grown in Dulbecco's Modified Eagle Media (DMEM) (Gibco-BRL) containing 10% Fetal calf serum (FCS) (Sigma) and 1 mg/ml G418 (Gibco-BRL). Cells were seeded the night before (1.5×10^4 cells/well) in 96-well tissue-culture sterile plates. Compound and no compound controls were prepared in DMEM containing 4% FCS, 1:100 Penicillin/Streptomysin (Gibco-BRL), 1:100 L-glutamine and 5% DMSO in the dilution plate (0.5% DMSO final concentration in the assay). Compound/DMSO mixes were added to the cells and incubated for 4 days at 37° C. After 4 days, cells were first assessed for cytotoxicity using alamar Blue (Trek Diagnotstic Systems) for a CC50 reading. The toxicity of compound (CC50) was determined by adding 1/10th volume of alamar Blue to the media incubating the cells. After 4 h, the fluorescence signal from each well was read, with an excitation wavelength at 530 nm and an emission wavelength of 580 nm, using the Cytofluor Series 4000 (Perspective Biosystems). Plates were then rinsed thoroughly with Phosphate-Buffered Saline (PBS) (3 times 150 μl). The cells were lysed with 25 μl of a lysis assay reagent containing an HCV protease substrate (5× cell Luciferase cell culture lysis reagent (Promega #E153A) diluted to 1× with distilled water, NaCl added to 150 mM final, the FRET peptide substrate (as described for the enzyme assay above) diluted to 10 μM final from a 2 mM stock in 100% DMSO. The plate was then placed into the Cytofluor 4000 instrument which had been set to 340 nm excitation/490 nm emission, automatic mode for 21 cycles and the plate read in a kinetic mode. EC50 determinations were carried out as described for the IC50 determinations.

C=C[C@@H]1C[C@]1(NC(=O)[C@@H]1C[C@@](O)(c2ccc(-c3ccccc3)cc2)CN1C(=O)[C@@H](NC(=O)OC(C)(C)C)C(C)(C)C)C(=O)NS(=O)(=O)C1CC1 [Compound 3]
EC50: 11 nM
